Source: a melting point compilation (Tetko et al.)

Compound	melting point [°C]
CC(O)CC(C)O (centres undefined)	50 to 52
O=C(c1cccc2ccccc12)C(Br)c1ccccc1 (centres undefined)	64
CC1(C)SC2C(NC(=O)C(N)c3ccccc3)C(=O)N2C1C(=O)O (centres undefined)	208
C1=CCCCC=C1	-110
CC(=O)c1ccc(C)nc1	17.6
Cc1cc(C)c(C=O)[nH]1	90 to 91
Oc1ccc2c(O)cccc2c1	138
Nc1noc2ccccc12	110 to 112
Oc1ccc(F)c(Cl)c1	41
COC(=O)CCC(C)C1CCC2C3C=CC4CCCCC4(C)C3CCC12C (centres undefined)	60
O=C(O)COc1c(F)c(F)c(F)c(F)c1F	109
COCc1cc(O)nc(SC)n1	195 to 196
NC(CC(=O)O)C1CCCCC1 (centres undefined)	234 to 235
NCc1ccc(C(=O)O)cc1	300
O=C1Nc2c(Br)cccc2C1=O	199 to 200
O=C1c2ccccc2C(O)(O)C1(O)C1(O)C(=O)c2ccccc2C1(O)O (centres undefined)	240
CC(=O)Nc1cccc(N=Nc2cccc(NC(C)=O)c2)c1	272
CN(C)c1ccc(N=C(C#N)c2cccc(C(C#N)=Nc3ccc(N(C)C)cc3)c2)cc1	150
CC12CCC(O)(CC1)CC2=O	55 to 56
O=C(O)/C(=C/c1ccccc1[N+](=O)[O-])c1ccc([N+](=O)[O-])cc1	184
CCC(C)C(=O)OC1CCC=C2C=CC(C)C(CCC3CC(O)CC(=O)O3)C21 (centres undefined)	152
Cc1nn(C(=O)c2ccncc2)c2c1nnc1ccc(Cl)cc12	162
COc1cc2cc[nH]c2cc1OC	157
CN(C)C(=O)[C@@H](O)[C@H](O)C(=O)N(C)C	186 to 188
Cc1csc2sc(C=O)c(C)c12	147 to 149
O=C(NC(=O)c1ccccc1)c1ccccc1	152

Compound	melting point [°C]
Cc1cc(C)c(CC(=O)c2cc3cc(Br)ccc3o2)c(C)c1	123 to 124
CSc1nc(=O)n(C2CCCCC2)c2c1CCC2	192 to 194
Cn1cccc1-c1nnc(S)n1-c1ccc(Cl)cc1Cl	252 to 256
CCCCCCCCC(C)=O	14
Clc1ccc2nc(Cl)sc2c1	96
COC(=O)CSCCC(N)=S	78 to 81
O=C1NC(=O)C(=Cc2cccc(C=C3C(=O)NC(=O)NC3=O)c2)C(=O)N1	340
CCOC(=O)c1c(NC(=S)Nc2ccccc2)sc2c1CCCC2	189 to 191
O=S(=O)(Cl)c1ccc(-c2ccccc2)cc1	115
Brc1ccc(Oc2c(Br)cc(Br)cc2Br)cc1	134 to 136
OC(CCl)CCl	-4
Cc1ccc(C(=O)C2=NOC3C(=O)N(c4ccc(F)cc4)C(=O)C23)cc1 (centres undefined)	173
COCC(=O)N(c1c(C)cccc1C)N1CCOC1=O	104
O=C(Oc1c(F)c(F)c(F)c(F)c1F)c1ccncc1	47.5 to 55.5
CCCCCCCCCCCCOS(=O)(=O)c1ccc(C)cc1	28.5 to 31.5
CCOc1ccc(N=Nc2ccc(OCC)cc2)cc1	162
NC(=O)c1cnc2ccccc2n1	195
COc1ccc(-c2csc(/C(C#N)=N\Nc3ccncc3)n2)cc1	255
OC1c2ccccc2C=Cc2ccccc21	126
O=Cc1cn(S(=O)(=O)c2ccccc2)c2ccccc12	156 to 157
Cc1[nH]c(=O)n(C(C)C)c(=O)c1Br	158
CC1(C)CC(=O)c2cc(-c3ccccc3)n(-c3ccc(Cl)cc3)c2C1	185 to 187
O=S(=O)(Cl)c1cc(C(F)(F)F)ccc1N1CCOCC1	81.5 to 84
CCCCC(=O)N(C)C	-51
CSC(S)=Nc1ccc(N)cc1	188 to 190
O=P(Oc1ccccc1)(Oc1ccccc1)Oc1noc2ccccc12	64 to 68

Compound	melting point [°C]
C=CCn1c(=O)oc(=O)c2ccccc21	111 to 113
C=Cc1ccc2c(c1)OCCOCCOCCOCCO2	35 to 43
CCOC(=O)c1c(C)c(C(C)=O)c(C)n1C	61 to 62
Ic1cccc2cccc(I)c12	106
CC(C)C1=C(O)C(=O)C2=C(C1=O)C(O)CC1C(C)(C)CCCC21C (centres undefined)	214
CCCCCCCCCCCCCCCC(=O)Oc1c[nH]c2ccc(Br)c(Cl)c12	53 to 57
Cn1nc(C(=O)O)c2ccccc21	213 to 221
O=C(CCl)Nc1ccccc1Cl	70 to 73
Cc1ccc(Br)c(O)c1C(=O)O	57
C[Si](C)(C)O[Si](C)(C)O[Si](C)(C)C	-80
COc1cc([N+](=O)[O-])c(Cl)cc1NC(C)=O	185
CC(=O)NCCc1ccccc1[N+](=O)[O-]	94
Nc1ccc2c(c1)COCO2	69
Cc1ccc(C#N)c([N+](=O)[O-])c1	97
COc1ccc(C[C@H](N)C(=O)O)cc1	259 to 261
CC(=O)C1(O)C(C)CC2C3CC=C4CC(O)CCC4(C)C3CCC21C (centres undefined)	224 to 230
CCCCCCCCn1c(=O)c2cc3c(OC)c4cc5c(=O)n(CCCCCCCC)c(=O)c5cc4c(OC)c3cc2c1=O	238
CCCCCCCCCCCCC1CCCCC1	12.5
Cc1onc(-c2c(Cl)cccc2Cl)c1C(=O)O	223
N#CC1=C(N)Oc2c(c(C(F)(F)F)nn2-c2ccccc2)C1c1ccc(F)cc1 (centres undefined)	202
Ic1ccc(-n2cccc2)cc1	131
CCCCCCCCCCCCC(CCCCCCCCCCC)CCCCCCCCCCCC	9.7
Clc1ccc(-c2nnn[nH]2)cc1Cl	161
CC(=O)Oc1ccc(Br)cc1	21
COc1ccc(C=C(Oc2ccc(Cl)cc2)c2nc3ccccc3s2)cc1	137 to 139
CC1(c2ccccc2)OC(C(=O)O)=CC1=O (centres undefined)	176

Compound	melting point [°C]
CCCCCCC(=O)OCCC	-63.5
Cn1c(=O)c(C2=NNC(=O)C2=NNc2ccccc2Cl)c(O)c2ccccc21	264
NNC(=S)NCCN1CCCCC1	121 to 123
CC1C(=O)C23C(O)CC4C(C)(C)CC(O)CC4(C)C2CCC1C3O (centres undefined)	377
NNC(=O)c1ccc(Cl)nc1	250
Cc1ccc(-c2cc(NN=c3c(C(F)(F)F)nc4ccccc4[nH]c3=O)[nH]n2)cc1	135
Cn1ncc2c(=N)n(N)cnc21	185
Cc1cccc2c1CC(C(=O)O)N(C(=O)OC(C)(C)C)C2 (racemic)	142 to 144
N#Cc1ccc2sccc2c1	69 to 71
O=c1oc2ccccc2c(O)c1C1CCCc2ccccc21 (centres undefined)	174
COC(=O)c1ccc(Br)cn1	101
Cc1cc(C)c(I)c(C)c1	29
CC(=O)O[C@@H](C(=O)O)c1ccccc1	97
CC1=CC(=O)C=CC1=O	69
NCc1ccc(-c2ccccc2)nc1	38 to 40
O=[N+]([O-])c1ccc(Sc2ccc([N+](=O)[O-])cc2)cc1	160
CC1(C)C2CC3C(C2)C31C	67.5
O=S(=O)(Cl)c1cccc(Cl)c1	21
O=C(O)/C=C/c1cccc2c(Br)cccc12	269 to 270
O=C(O)CNCCNCC(=O)O	224 to 225
O=C(O)C(CCBr)(c1ccccc1)c1ccccc1	135 to 137
COc1ccc(C(=O)O)c(C(F)(F)F)c1	149
CCCCCCCCCCCCCCCCC(=O)OC	30
OC(c1c2ccccc2cc2ccccc12)C(F)(F)F (centres undefined)	142
CC(C)C1=C(O)C(=O)C2=C(CC(O)C3C(C)(C)CCCC23C)C1=O (centres undefined)	188
CCc1nn(CCCN2CCN(c3cccc(Cl)c3)CC2)c(=O)n1CCOc1ccccc1	83.5

Compound	melting point [°C]
CC(=O)c1ccc(C#N)s1	78
O=C(c1ccc2ccccc2c1)c1noc(-c2cccc3ccccc23)c1S(=O)(=O)c1ccccc1	115
C(=N\CC/N=C/c1ccc2c(c1)OCO2)/c1ccc2c(c1)OCO2	178
O=S1(=O)OCCO1	99
Cc1ccc2c(c1)OC(C)(c1ccc(C)cc1OC(=O)[C@]13CC[C@](C)(C(=O)O1)C3(C)C)CC2(C)C (some centres undefined)	136
NC(=O)C1CO1 (centres undefined)	33
O=C(O)c1cccc2c1-c1ccccc1C2	192 to 194
O=S(=O)(Oc1ccc(Cl)cc1)c1ccc(Cl)cc1	86.5
CN1CCOc2cc(Br)ccc21	47 to 49
NC(=O)c1ccc2c(c1)OCO2	167 to 169
O=C(O)c1ccc(C(F)(F)F)c(F)c1	175
O=C(CBr)c1ccc(OC(F)F)cc1	63 to 65
O=C(O)c1ccc(F)c(Cl)c1	135
OC(c1ccc(Cl)cc1)c1cc2ccccc2o1 (centres undefined)	48.5
CN(N=Cc1ccc(Br)cc1)P(=O)(N1CC1)N1CC1	118
O=Cc1cccc2c([N+](=O)[O-])cccc12	136
CCCC#CCCCC(=O)O	-3
Cc1ccccc1CC(=O)O	88
O=c1[nH]nc(S)n1C1CCCCC1	190 to 194
O=C(Oc1cccc2c1CCC2=O)c1ccccc1	78 to 80
COC(=O)c1cc(OCC(F)(F)F)ccc1OCC(F)(F)F	40 to 41
Fc1ccc2nc(Cl)sc2c1	91
CCCC(C)(COC(N)=O)COC(N)=O	104
Cc1csc(N)c1-c1nc2ccccc2s1	111 to 112
CCCCCCCCCCCCCCCCCC(=O)OCCC(C)C	25.5
